According to US9738634B2, “Heterocyclic amide compound and herbicide” (SYNGENTA PARTICIPATIONS AG, priority 2013, dated 2017):

How the values were obtained:
Type in all cases: in vivo
Details in all cases: treatment dosage 320 g/ha
[1] = system: barnyard grass; experiment: Test Example 1: weedkilling efficacy, preemergent weed treatment in the submerged state; A: barnyard grass
How it was run: (§1)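 Pre-emergence paddy test: weed seeds sown in submerged alluvial soil (4 cm water), 2.5-leaf rice transplanted, water-diluted emulsion applied to water surface at sowing at stated g/ha. Scored at 3 weeks, greenhouse 25–30 °C.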

[2] = system: bulrush; experiment: Test Example 1: weedkilling efficacy, preemergent weed treatment in the submerged state; B: bulrush
How it was run: as §1

[3] = system: oval-leafed pondweed; experiment: Test Example 1: weedkilling efficacy, preemergent weed treatment in the submerged state; C: oval-leafed pondweed
How it was run: as §1

[4] = system: transplanted rice; experiment: Test Example 1: preemergent weed treatment in the submerged state, effect on crop; a: transplanted rice
How it was run: as §1

[5] = system: barnyard grass; experiment: Test Example 2: weedkilling efficacy, growth period weed treatment in the submerged state; A: barnyard grass
How it was run: (§2)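 Seedlings at 1-2 leaves in 4 cm-deep submerged alluvial soil received emulsion formulations on the water surface, dosed per hectare; effects were judged 3 weeks on.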

[6] = system: bulrush; experiment: Test Example 2: weedkilling efficacy, growth period weed treatment in the submerged state; B: bulrush
How it was run: as §2

[7] = system: oval-leafed pondweed; experiment: Test Example 2: weedkilling efficacy, growth period weed treatment in the submerged state; C: oval-leafed pondweed
How it was run: as §2

[8] = system: crabgrass; experiment: Test Example 3: weedkilling efficacy through soil treatment; D: crabgrass
How it was run: (§3)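 Crop and weed responses were judged three weeks after a uniform surface spray of the water-diluted emulsion at the given g/ha rate. Seeds sat beneath about 1.5 cm of sterilized diluvial soil, and boxes stood in a greenhouse at 25 to 30° C.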

[9] = system: green foxtail; experiment: Test Example 3: weedkilling efficacy through soil treatment; E: green foxtail
How it was run: as §3

[10] = system: barnyard grass; experiment: Test Example 3: weedkilling efficacy through soil treatment; F: barnyard grass
How it was run: as §3

[11] = system: wild oat; experiment: Test Example 3: weedkilling efficacy through soil treatment; G: wild oat
How it was run: as §3

[12] = system: black-grass; experiment: Test Example 3: weedkilling efficacy through soil treatment; H: black-grass
How it was run: as §3

[13] = system: Italian ryegrass; experiment: Test Example 3: weedkilling efficacy through soil treatment; I: Italian ryegrass
How it was run: as §3

[14] = system: common wind-grass; experiment: Test Example 3: weedkilling efficacy through soil treatment; J: common wind-grass
How it was run: as §3

[15] = system: Indian mallow; experiment: Test Example 3: weedkilling efficacy through soil treatment; K: Indian mallow
How it was run: as §3

[16] = system: redroot pigweed; experiment: Test Example 3: weedkilling efficacy through soil treatment; L: redroot pigweed
How it was run: as §3

[17] = system: fig-leafed goosefoot; experiment: Test Example 3: weedkilling efficacy through soil treatment; M: fig-leafed goosefoot
How it was run: as §3

[18] = system: chickweed; experiment: Test Example 3: weedkilling efficacy through soil treatment; N: chickweed
How it was run: as §3

[19] = system: catchweed; experiment: Test Example 3: weedkilling efficacy through soil treatment; O: catchweed
How it was run: as §3

[20] = system: birds-eye speedwell; experiment: Test Example 3: weedkilling efficacy through soil treatment; p: birds-eye speedwell
How it was run: as §3

[21] = system: directly sown rice; experiment: Test Example 3: soil treatment, effect on crop; b: directly sown rice
How it was run: as §3

[22] = system: corn; experiment: Test Example 3: soil treatment, effect on crop; c: corn
How it was run: as §3

[23] = system: soybean; experiment: Test Example 3: soil treatment, effect on crop; d: soybean
How it was run: as §3

[24] = system: wheat; experiment: Test Example 3: soil treatment, effect on crop; e: wheat
How it was run: as §3

[25] = system: beet; experiment: Test Example 3: soil treatment, effect on crop; f: beet
How it was run: as §3

[26] = system: rapeseed; experiment: Test Example 3: soil treatment, effect on crop; g: rapeseed
How it was run: as §3

[27] = system: crabgrass; experiment: Test Example 4: weedkilling efficacy by foliar treatment; D: crabgrass
How it was run: (§4)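 Seeds are spot-sown into sterilized diluvial soil and covered with about 1.5 cm of soil. After 14 days' greenhouse growth at 25 to 30° C, plants are sprayed on stems and leaves with diluted emulsion at the stated g/ha rate, then scored at 3 weeks.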

[28] = system: green foxtail; experiment: Test Example 4: weedkilling efficacy by foliar treatment; E: green foxtail
How it was run: as §4

[29] = system: barnyard grass; experiment: Test Example 4: weedkilling efficacy by foliar treatment; F: barnyard grass
How it was run: as §4

[30] = system: wild oat; experiment: Test Example 4: weedkilling efficacy by foliar treatment; G: wild oat
How it was run: as §4

[31] = system: black-grass; experiment: Test Example 4: weedkilling efficacy by foliar treatment; H: black-grass
How it was run: as §4

[32] = system: Italian ryegrass; experiment: Test Example 4: weedkilling efficacy by foliar treatment; I: Italian ryegrass
How it was run: as §4

[33] = system: common wind-grass; experiment: Test Example 4: weedkilling efficacy by foliar treatment; J: common wind-grass
How it was run: as §4

[34] = system: Indian mallow; experiment: Test Example 4: weedkilling efficacy by foliar treatment; K: Indian mallow
How it was run: as §4

[35] = system: redroot pigweed; experiment: Test Example 4: weedkilling efficacy by foliar treatment; L: redroot pigweed
How it was run: as §4

[36] = system: fig-leafed goosefoot; experiment: Test Example 4: weedkilling efficacy by foliar treatment; M: fig-leafed goosefoot
How it was run: as §4

[37] = system: chickweed; experiment: Test Example 4: weedkilling efficacy by foliar treatment; N: chickweed
How it was run: as §4

[38] = system: catchweed; experiment: Test Example 4: weedkilling efficacy by foliar treatment; O: catchweed
How it was run: as §4

[39] = system: directly sown rice; experiment: Test Example 4: foliar treatment, effect on crop; b: directly sown rice
How it was run: as §4

[40] = system: corn; experiment: Test Example 4: foliar treatment, effect on crop; c: corn
How it was run: as §4

[41] = system: soybean; experiment: Test Example 4: foliar treatment, effect on crop; d: soybean
How it was run: as §4

[42] = system: wheat; experiment: Test Example 4: foliar treatment, effect on crop; e: wheat
How it was run: as §4

[43] = system: beet; experiment: Test Example 4: foliar treatment, effect on crop; f: beet
How it was run: as §4

[44] = system: rapeseed; experiment: Test Example 4: foliar treatment, effect on crop; g: rapeseed
How it was run: as §4

CC1=C(c2ccccc2)C(=O)N(C(C)(C)C(=O)Nc2ccc(F)cn2)CO1 [B-2-26]
A (barnyard grass) weedkilling efficacy grade [1]: 5 (weed kill ratio 90% or more, (practically complete withering)) | B (bulrush) weedkilling efficacy grade [2]: 5 (weed kill ratio 90% or more, (practically complete withering)) | C (oval-leafed pondweed) weedkilling efficacy grade [3]: 5 (weed kill ratio 90% or more, (practically complete withering)) | a (transplanted rice) effect on crop grade [4]: 0 (weed kill ratio 5% or less (practically no effect)) | A (barnyard grass) weedkilling efficacy grade [5]: 5 (weed kill ratio 90% or more, (practically complete withering)) | B (bulrush) weedkilling efficacy grade [6]: 5 (weed kill ratio 90% or more, (practically complete withering)) | C (oval-leafed pondweed) weedkilling efficacy grade [7]: 5 (weed kill ratio 90% or more, (practically complete withering)) | D (crabgrass) weedkilling efficacy grade [8]: 5 (weed kill ratio 90% or more, (practically complete withering)) | E (green foxtail) weedkilling efficacy grade [9]: 5 (weed kill ratio 90% or more, (practically complete withering)) | F (barnyard grass) weedkilling efficacy grade [10]: 5 (weed kill ratio 90% or more, (practically complete withering)) | G (wild oat) weedkilling efficacy grade [11]: 1 (weed kill ratio 5% or more, less than 20%) | H (black-grass) weedkilling efficacy grade [12]: 5 (weed kill ratio 90% or more, (practically complete withering)) | I (Italian ryegrass) weedkilling efficacy grade [13]: 5 (weed kill ratio 90% or more, (practically complete withering)) | J (common wind-grass) weedkilling efficacy grade [14]: 5 (weed kill ratio 90% or more, (practically complete withering)) | K (Indian mallow) weedkilling efficacy grade [15]: 0 (weed kill ratio 5% or less (practically no effect)) | L (redroot pigweed) weedkilling efficacy grade [16]: 4 (weed kill ratio 70% or more, less than 90%) | M (fig-leafed goosefoot) weedkilling efficacy grade [17]: 4 (weed kill ratio 70% or more, less than 90%) | N (chickweed) weedkilling efficacy grade [18]: 3 (weed kill ratio 40% or more, less than 70%) | O (catchweed) weedkilling efficacy grade [19]: 2 (weed kill ratio 20% or more, less than 40%) | P (birds-eye speedwell) weedkilling efficacy grade [20]: 0 (weed kill ratio 5% or less (practically no effect)) | b (directly sown rice) effect on crop grade [21]: 2 (weed kill ratio 20% or more, less than 40%) | c (corn) effect on crop grade [22]: 0 (weed kill ratio 5% or less (practically no effect)) | d (soybean) effect on crop grade [23]: 0 (weed kill ratio 5% or less (practically no effect)) | e (wheat) effect on crop grade [24]: 0 (weed kill ratio 5% or less (practically no effect)) | f (beet) effect on crop grade [25]: 0 (weed kill ratio 5% or less (practically no effect)) | g (rapeseed) effect on crop grade [26]: 0 (weed kill ratio 5% or less (practically no effect)) | D (crabgrass) weedkilling efficacy grade [27]: 3 (weed kill ratio 40% or more, less than 70%) | E (green foxtail) weedkilling efficacy grade [28]: 4 (weed kill ratio 70% or more, less than 90%) | F (barnyard grass) weedkilling efficacy grade [29]: 3 (weed kill ratio 40% or more, less than 70%) | G (wild oat) weedkilling efficacy grade [30]: 3 (weed kill ratio 40% or more, less than 70%) | H (black-grass) weedkilling efficacy grade [31]: 4 (weed kill ratio 70% or more, less than 90%) | I (Italian ryegrass) weedkilling efficacy grade [32]: 3 (weed kill ratio 40% or more, less than 70%) | J (common wind-grass) weedkilling efficacy grade [33]: 5 (weed kill ratio 90% or more, (practically complete withering)) | K (Indian mallow) weedkilling efficacy grade [34]: 3 (weed kill ratio 40% or more, less than 70%) | L (redroot pigweed) weedkilling efficacy grade [35]: 4 (weed kill ratio 70% or more, less than 90%) | M (fig-leafed goosefoot) weedkilling efficacy grade [36]: 4 (weed kill ratio 70% or more, less than 90%) | N (chickweed) weedkilling efficacy grade [37]: 3 (weed kill ratio 40% or more, less than 70%) | O (catchweed) weedkilling efficacy grade [38]: 3 (weed kill ratio 40% or more, less than 70%) | b (directly sown rice) effect on crop grade [39]: 1 (weed kill ratio 5% or more, less than 20%) | c (corn) effect on crop grade [40]: 3 (weed kill ratio 40% or more, less than 70%) | d (soybean) effect on crop grade [41]: 4 (weed kill ratio 70% or more, less than 90%) | e (wheat) effect on crop grade [42]: 0 (weed kill ratio 5% or less (practically no effect)) | f (beet) effect on crop grade [43]: 4 (weed kill ratio 70% or more, less than 90%) | g (rapeseed) effect on crop grade [44]: 1 (weed kill ratio 5% or more, less than 20%)
